Assay results from US10344024B2, “Compounds as ROR gamma modulators” (Glenmark Pharmaceuticals S.A., priority 2015, dated 2019).

Molecular target: T1, GST-tagged ROR gamma ligand binding domain (LBD) (Homo sapiens, UniProt P51449)
T1 construct: purchased Invitrogen
T1 sequence (P51449 269-508 limits assumed): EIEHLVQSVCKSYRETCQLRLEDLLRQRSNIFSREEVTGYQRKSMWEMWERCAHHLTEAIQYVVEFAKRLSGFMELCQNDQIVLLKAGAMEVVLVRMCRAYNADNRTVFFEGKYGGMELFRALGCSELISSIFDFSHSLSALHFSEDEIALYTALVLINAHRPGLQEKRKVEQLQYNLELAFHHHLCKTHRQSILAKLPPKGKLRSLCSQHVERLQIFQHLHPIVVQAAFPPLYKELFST
Experiment: TR-FRET assay for ROR gamma (LanthaScreen co-activator peptide recruitment)
Format: biochemical
Conditions: for inhibition at 1 µM: compound concentration 1 μM; for inhibition at 1 µM / inhibition at 10 µM: TR-FRET ratio 520/495, percent of control; for inhibition at 10 µM: compound concentration 10 μM; for IC50: from dose response curve, nonlinear regression, read-out: IC50 range
How it was run: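 Antagonist-mode co-activator recruitment: 10 nM GST-RORγ LBD with compound (4% DMSO final) in 25 mM HEPES pH 7.4, 100 mM NaCl, 5 mM DTT, 0.01% BSA, 1 h at 22° C.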

**Q.** With `CCC(F)(F)c1ccc(CC(=O)Nc2ccc(-c3nccnc3OC(C)c3ccccc3)cc2)cc1` (stereo not drawn) [Example 76, 2-(4-(1,1-Difluoropropyl)phenyl)-N-(4-(3-(1-phenylethoxy)pyrazin-2-yl)phenyl)acetamide] as the molecule, how does the inhibition at 1 µM read?
**A.** 78.1%

**Q.** What about the inhibition at 10 µM of the same molecule?
**A.** 87.5%

**Q.** And the IC50?
**A.** 100 to 500 nM

**Q.** What does the source list for `CCC(F)(F)c1ccc(CC(=O)Nc2ccc(-c3nccnc3OCc3ccc(F)cc3Cl)cc2)cc1` [Example 77, N-(4-(3-((2-Chloro-4-fluorobenzyl)oxy)pyrazin-2-yl)phenyl)-2-(4-(1,1-difluoropropyl)phenyl)acetamide]?
**A.** inhibition at 1 µM: 80.5%; inhibition at 10 µM: 73.7%; IC50: < 50 nM

**Q.** Which results are given for `CC(O)C(F)(F)c1ccc(CC(=O)Nc2ccc(-c3nccnc3OCc3ccccc3)cc2)cc1` (stereo not drawn) [Example 78, N-(4-(3-(Benzyloxy)pyrazin-2-yl)phenyl)-2-(4-(1,1-difluoro-2-hydroxypropyl)phenyl)acetamide]?
**A.** inhibition at 1 µM: 89.6%; inhibition at 10 µM: 93.9%; IC50: < 50 nM

**Q.** For `CCC(F)(F)c1ccc(CC(=O)Nc2ccc(-c3nccnc3O[C@H](C)c3ccccc3)cc2)cc1` [Example 79, (R)-2-(4-(1,1-Difluoropropyl)phenyl)-N-(4-(3-(1-phenylethoxy)pyrazin-2-yl)phenyl)acetamide], which inhibition at 1 µM is on record?
**A.** 69.5%

**Q.** What about the inhibition at 10 µM of the same molecule?
**A.** 85.8%

**Q.** What about the IC50 of the same molecule?
**A.** 100 to 500 nM

**Q.** With `CCC(F)(F)c1ccc(CC(=O)Nc2ccc(-c3nccnc3O[C@@H](C)c3ccccc3)cc2)cc1` [Example 80, (S)-2-(4-(1,1-Difluoropropyl)phenyl)-N-(4-(3-(1-phenylethoxy)pyrazin-2-yl)phenyl)acetamide] as the molecule, how does the inhibition at 1 µM read?
**A.** 69.5%

**Q.** What about the inhibition at 10 µM of the same molecule?
**A.** 86.3%

**Q.** And the IC50?
**A.** 100 to 500 nM

**Q.** With `CCC(F)(F)c1ccc(CC(=O)Nc2ccc(-c3nccnc3OC(C)c3ccccc3C3CC3)cc2)cc1` (stereo not drawn) [Example 81, N-(4-(3-(1-(2-Cyclopropylphenyl)ethoxy)pyrazin-2-yl)phenyl)-2-(4-(1,1-difluoropropyl)phenyl)acetamide] as the molecule, how does the inhibition at 1 µM read?
**A.** 83.2%

**Q.** And the inhibition at 10 µM?
**A.** 88.3%

**Q.** What about the IC50 of the same molecule?
**A.** 100 to 500 nM

**Q.** Which results are given for `CC(O)C(F)(F)c1ccc(CC(=O)Nc2ccc(-c3nccnc3OC3(c4ccccc4)CC3)cc2)cc1` (stereo not drawn) [Example 82, 2-(4-(1,1-Difluoro-2-hydroxypropyl)phenyl)-N-(4-(3-(1-phenylcyclopropoxy)pyrazin-2-yl)phenyl)acetamide]?
**A.** inhibition at 1 µM: 37.9%; inhibition at 10 µM: 80.1%

**Q.** How did the inhibition at 1 µM turn out when `CCC(F)(F)c1ccc(CC(=O)Nc2ccc(-c3nccnc3O[C@H](C)c3ccccc3Cl)cc2)cc1` [Example 83, (R)-N-(4-(3-(1-(2-Chlorophenyl)ethoxy)pyrazin-2-yl)phenyl)-2-(4-(1,1-difluoropropyl)phenyl)acetamide] was run?
**A.** 79.7%

**Q.** What about the inhibition at 10 µM of the same molecule?
**A.** 78.2%

**Q.** And the IC50?
**A.** 50 to 100 nM

**Q.** Which inhibition at 1 µM does the source give for `CC(O)C(F)(F)c1ccc(CC(=O)Nc2ccc(-c3nccnc3O[C@H](C)c3ccccc3Cl)cc2)cc1` (stereo partly drawn) [Example 84, N-(4-(3-((R)-1-(2-Chlorophenyl)ethoxy)pyrazin-2-yl)phenyl)-2-(4-(1,1-difluoro-2-hydroxypropyl)phenyl)acetamide] here?
**A.** 83.8%

**Q.** What about the inhibition at 10 µM of the same molecule?
**A.** 81.9%

**Q.** What about the IC50 of the same molecule?
**A.** 50 to 100 nM

**Q.** `CCC(F)(F)c1ccc(CC(=O)Nc2ccc(-c3nccnc3O[C@@H](C)c3ccccc3Cl)cc2)cc1` [Example 85, (S)-N-(4-(3-(1-(2-Chlorophenyl)ethoxy)pyrazin-2-yl)phenyl)-2-(4-(1,1-difluoropropyl)phenyl)acetamide] was tested. Which inhibition at 1 µM did it give?
**A.** 74.8%

**Q.** And the inhibition at 10 µM?
**A.** 79.6%

**Q.** What about the IC50 of the same molecule?
**A.** 100 to 500 nM

**Q.** For `CC(O)C(F)(F)c1ccc(CC(=O)Nc2ccc(-c3nccnc3O[C@@H](C)c3ccccc3Cl)cc2)cc1` (stereo partly drawn) [Example 86, N-(4-(3-((S)-1-(2-Chlorophenyl)ethoxy)pyrazin-2-yl)phenyl)-2-(4-(1,1-difluoro-2-hydroxypropyl)phenyl)acetamide], which inhibition at 1 µM is on record?
**A.** 84.5%

**Q.** And the inhibition at 10 µM?
**A.** 86%

**Q.** What about the IC50 of the same molecule?
**A.** 50 to 100 nM

**Q.** Which inhibition at 1 µM does the source give for `CCC(F)(F)c1ccc(CC(=O)Nc2ccc(-c3nccnc3Oc3ccccc3Cl)cc2)cc1` [Example 87, N-(4-(3-(2-Chlorophenoxy)pyrazin-yl)phenyl)-2-(4-(1,1-difluoropropyl)phenyl)acetamide] here?
**A.** 16.3%

**Q.** What about the inhibition at 10 µM of the same molecule?
**A.** 32.4%

**Q.** Which results are given for `Cc1ccc([C@@H](C)Oc2nccnc2-c2ccc(NC(=O)Cc3ccc(C(F)(F)C(C)O)cc3)cc2)c(Cl)c1` (stereo partly drawn) [Example 88, N-(4-(3-((R)-1-(2-Chloro-4-methylphenyl)ethoxy)pyrazin-2-yl)phenyl)-2-(4-(1,1-difluoro-2-hydroxypropyl)phenyl)acetamide]?
**A.** inhibition at 1 µM: 87.4%; inhibition at 10 µM: 85.5%; IC50: < 50 nM

**Q.** For `CCC(F)(F)c1ccc(CC(=O)Nc2ccc(-c3nccnc3OCc3c(C)noc3C)cc2)cc1` [Example 89, 2-(4-(1,1-Difluoropropyl)phenyl)-N-(4-(3-((3,5-dimethylisoxazol-4-yl)methoxy)pyrazin-2-yl)phenyl)acetamide], which inhibition at 1 µM is on record?
**A.** 58.8%

**Q.** What about the inhibition at 10 µM of the same molecule?
**A.** 74.6%

**Q.** `Cc1noc(C)c1CCOc1nccnc1-c1ccc(NC(=O)Cc2ccc(C(F)(F)C(C)O)cc2)cc1` (stereo not drawn) [Example 90, 2-(4-(1,1-Difluoro-2-hydroxypropyl)phenyl)-N-(4-(3-(2-(3,5-dimethylisoxazol-4-yl)ethoxy)pyrazin-2-yl)phenyl)acetamide] was tested. Which inhibition at 1 µM did it give?
**A.** 90.7%

**Q.** What about the inhibition at 10 µM of the same molecule?
**A.** 93.9%

**Q.** And the IC50?
**A.** < 50 nM

**Q.** Which inhibition at 1 µM does the source give for `CC(O)C(F)(F)c1ccc(CC(=O)Nc2ccc(-c3nccnc3OCc3ccccc3Cl)cc2)cc1` (stereo not drawn) [Example 91, N-(4-(3-((2-Chlorobenzyl)oxy)pyrazin-2-yl)phrnyl)-2-(4-(1,1-difluoro-2-hydroxypropyl)phenyl)acetamide] here?
**A.** 79.3%

**Q.** And the inhibition at 10 µM?
**A.** 82.6%

**Q.** And the IC50?
**A.** < 50 nM

**Q.** Which inhibition at 1 µM does the source give for `Cc1ncsc1CCOc1nccnc1-c1ccc(NC(=O)Cc2ccc(C(F)(F)C(C)O)cc2)cc1` (stereo not drawn) [Example 92, 2-(4-(1,1-Difluoro-2-hydroxypropyl)phenyl)-N-(4-(3-(2-(4-methylthiazol-5-yl)ethoxy)pyrazin-2-yl)phenyl)acetamide] here?
**A.** 83.5%

**Q.** And the inhibition at 10 µM?
**A.** 88%

**Q.** And the IC50?
**A.** 50 to 100 nM

**Q.** For `CC(O)C(F)(F)c1ccc(CC(=O)Nc2ccc(-c3nccnc3OCC3CCCCC3)cc2)cc1` (stereo not drawn) [Example 93, N-(4-(3-(Cyclohexylmethoxy)pyrazin-2-yl)phenyl)-2-(4-(1,1-difluoro-2-hydroxypropyl)phenyl)acetamide], which inhibition at 1 µM is on record?
**A.** 86.6%

**Q.** And the inhibition at 10 µM?
**A.** 94.1%

**Q.** What about the IC50 of the same molecule?
**A.** 100 to 500 nM

**Q.** Which results are given for `CC(O)C(F)(F)c1ccc(CC(=O)Nc2ccc(-c3nccnc3N3CC(OCc4ccccc4)C3)cc2)cc1` (stereo not drawn) [Example 94, N-(4-(3-(3-(Benzyloxy)azetidin-1-yl)pyrazin-2-yl)phenyl)-2-(4-(1,1-difluoro-2-hydroxypropyl)phenyl)acetamide]?
**A.** inhibition at 1 µM: 15.8%; inhibition at 10 µM: 45.6%

**Q.** Which results are given for `Cc1ccc([C@H](C)Nc2nccnc2-c2ccc(NC(=O)Cc3ccc(C(F)(F)C(C)O)cc3)cc2)c(C)c1` (stereo partly drawn) [Example 95, 2-(4-(1,1-Difluoro-2-hydroxypropyl)phenyl)-N-(4-(3-(((S)-1-(2,4-dimethylphenyl)ethyl)amino)pyrazin-2-yl)phenyl)acetamide]?
**A.** inhibition at 1 µM: 93.7%; inhibition at 10 µM: 95.4%; IC50: < 50 nM

**Q.** Which results are given for `CCC(F)(F)c1ccc(CC(=O)Nc2ccc(-c3nccnc3N3CCN(C(=O)C4CC4)CC3)cc2)cc1` [Example 96, N-(4-(3-(4-(Cyclopropanecarbonyl)piperazin-1-yl)pyrazin-2-yl)phenyl)-2-(4-(1,1-difluoropropyl)phenyl)acetamide]?
**A.** inhibition at 1 µM: 47.7%; inhibition at 10 µM: 77.2%

**Q.** Which inhibition at 1 µM does the source give for `CCC(F)(F)c1ccc(CC(=O)Nc2ccc(-c3nccnc3NC(CO)c3ccccc3)cc2)cc1` (stereo not drawn) [Example 97, 2-(4-(1,1-Difluoropropyl)phenyl)-N-(4-(3-((2-hydroxy-1-phenylethyl)amino)pyrazin-2-yl)phenyl)acetamide] here?
**A.** 22.5%

**Q.** What about the inhibition at 10 µM of the same molecule?
**A.** 46.2%

**Q.** Which results are given for `Cc1ccc([C@@H](C)Oc2nccnc2-c2ccc(NC(=O)Cc3ccc(C(F)(F)C(C)O)cc3)cc2)c(C)c1` (stereo partly drawn) [Example 98, 2-(4-(1,1-Difluoro-2-hydroxypropyl)phenyl)-N-(4-(3-((R)-1-(2,4-dimethylphenyl)ethoxy)pyrazin-2-yl)phenyl)acetamide]?
**A.** inhibition at 1 µM: 89.5%; inhibition at 10 µM: 89%; IC50: < 50 nM

**Q.** For `CCC(F)(F)c1ccc(CC(=O)Nc2ccc(-c3nccnc3N3CCN(C4COC4)CC3)cc2)cc1` [Example 99, 2-(4-(1,1-Difluoropropyl)phenyl)-N-(4-(3-(4-(oxetan-3-yl)piperazin-1-yl)pyrazin-2-yl)phenyl)acetamide], which inhibition at 1 µM is on record?
**A.** 79.2%

**Q.** And the inhibition at 10 µM?
**A.** 91.9%

**Q.** What about the IC50 of the same molecule?
**A.** 50 to 100 nM
